Source: patent publication US7498304B2, “Angiogenesis-modulating compositions and uses” (Curis, Inc., priority 2002, dated 2009)

Assays:
C3H10T1/2 cells = assay: C3H10T1/2 alkaline phosphatase induction assay; type: cell-based, mouse
From the text: Persons having ordinary skill in the art can easily test any putative hedgehog antagonist for these properties. In particular, the mouse embryonic fibroblast line C3H10T1/2 is a mesenchymal stem cell line that is hedgehog responsive. Hedgehog treatment of the cells causes an upregulation of gli-1 and patched-1 (known indicators of hedgehog dependent signaling) and also causes induction of alkaline phosphatase activity, an indicator that the cells have differentiated down the chondrocyte/ bone osteoblast lineage. Several hedgehog variants are unable to elicit a hedgehog-dependent response on C3H10T1/2 cells, but they competed with mature hedgehog for function and therefore serve as functional antagonists. […]
The mouse embryonic fibroblast line C3H10T1/2 is a mesenchymal stem cell line that, under defined conditions, can differentiate into adipocytes, chondrocytes, and bone osteoblasts (Taylor, S. M., and Jones, P. A., Cell 17: 771-779 (1979) and Wang, E. A., et al., Growth Factors 9: 57-71 (1993)). […] Shh has a similar effect on C3H10T1/2 cells (Kinto, N. et al., FEBS Letts. 404: 319-323 (1997)) and we routinely use the alkaline phosphatase induction by Shh as a quantitative measure of its in vitro potency. Shh treatment also produces a dose-dependent increase in gli-1 and ptc-1 expression, which can be readily detected by a PCR-based analysis.

patched-1 = molecular target: T1, patched-1 (Homo sapiens, UniProt Q13635); assay: binding to the hedgehog receptor patched-1; settings: compared with mature Shh
T1 sequence (Q13635 1-1447): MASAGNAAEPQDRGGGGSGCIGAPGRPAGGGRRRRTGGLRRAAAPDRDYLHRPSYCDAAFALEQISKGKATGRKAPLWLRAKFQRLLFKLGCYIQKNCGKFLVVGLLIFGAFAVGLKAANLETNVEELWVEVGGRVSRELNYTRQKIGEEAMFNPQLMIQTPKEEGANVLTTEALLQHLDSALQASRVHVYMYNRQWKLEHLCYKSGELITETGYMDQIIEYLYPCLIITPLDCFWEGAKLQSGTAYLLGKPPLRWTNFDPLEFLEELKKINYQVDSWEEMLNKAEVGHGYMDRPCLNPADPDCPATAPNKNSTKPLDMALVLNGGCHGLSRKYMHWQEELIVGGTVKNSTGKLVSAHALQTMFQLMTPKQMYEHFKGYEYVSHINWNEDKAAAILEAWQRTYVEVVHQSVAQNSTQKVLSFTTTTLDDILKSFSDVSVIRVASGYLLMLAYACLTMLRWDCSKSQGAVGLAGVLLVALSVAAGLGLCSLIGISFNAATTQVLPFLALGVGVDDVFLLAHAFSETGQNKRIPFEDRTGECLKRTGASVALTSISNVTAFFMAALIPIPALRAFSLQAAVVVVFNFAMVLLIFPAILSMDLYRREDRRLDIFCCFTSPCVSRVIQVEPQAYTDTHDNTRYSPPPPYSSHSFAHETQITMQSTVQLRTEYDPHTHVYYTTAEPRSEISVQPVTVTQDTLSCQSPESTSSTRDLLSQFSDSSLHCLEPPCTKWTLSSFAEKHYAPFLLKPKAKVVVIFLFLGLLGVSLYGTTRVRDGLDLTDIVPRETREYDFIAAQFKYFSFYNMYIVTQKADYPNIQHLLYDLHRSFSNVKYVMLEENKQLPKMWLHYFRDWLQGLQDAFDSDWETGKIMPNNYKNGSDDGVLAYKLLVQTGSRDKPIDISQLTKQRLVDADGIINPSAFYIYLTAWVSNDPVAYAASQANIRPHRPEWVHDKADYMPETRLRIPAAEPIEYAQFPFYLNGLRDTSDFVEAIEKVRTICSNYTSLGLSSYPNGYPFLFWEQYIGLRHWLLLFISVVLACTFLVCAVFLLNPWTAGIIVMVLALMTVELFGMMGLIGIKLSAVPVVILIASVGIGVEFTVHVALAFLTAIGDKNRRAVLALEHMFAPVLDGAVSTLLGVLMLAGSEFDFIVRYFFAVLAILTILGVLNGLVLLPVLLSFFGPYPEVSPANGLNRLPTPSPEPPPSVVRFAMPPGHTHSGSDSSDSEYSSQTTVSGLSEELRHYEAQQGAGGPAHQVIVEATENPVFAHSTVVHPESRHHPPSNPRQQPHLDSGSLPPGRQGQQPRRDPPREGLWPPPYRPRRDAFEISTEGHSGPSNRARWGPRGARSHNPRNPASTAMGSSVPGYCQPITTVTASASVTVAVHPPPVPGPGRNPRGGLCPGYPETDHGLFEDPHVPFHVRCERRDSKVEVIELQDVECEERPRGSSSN

matrigel plug = assay: subcutaneous matrigel plug assay of angiogenesis; settings: mouse, in vivo
Method: Hedgehog was also found to induce angiogenesis in the subcutaneous matrigel plug assay (Passaniti et al., 1992). Doses of 2 to 10 ug/ml of octyl, myr, PEG II or II-Fc fusion forms of human recombinant Shh were prepared in 0.5 ml of matrigel containing 40 IU/ml of heparin and injected subcutaneously into C57BL6 mice (3-5 mo. old, 5 mice/treatment group). The mice were sacrificed between 6-7 days after injection and the matrigel plug was dissected for visual inspection and histological analysis. […] The results of the matrigel plug support the finding that hedgehog can induce angiogenesis in vivo.

Substance | block of AP induction by mature Shh (C3H10T1/2 cells) | ability to bind patched-1 (patched-1) | implants with significant hemoglobin content (matrigel plug)
Shh in which the N-terminal cysteine is replaced with a serine residue: Shh mutant, N-terminal cysteine replaced with serine; functional antagonist | blocks AP induction | indistinguishable from mature Shh | 
bFGF: Recombinant human bFGF, a known angiogenic protein |  |  | 3 of 5
